Results reported in patent US20050164370A1 (priority 2003, published 2005).

What was measured:
Type in all cases: cell-based, yeast
[1] = test system: transformed cells TM182-CYC1-CYC1IPT5; assay: Liquid culture of transformed cell TM182-CYC1-CYC1IPT5 with examinee substance, absorbance; conditions: DOHLU+Glu, 30° C. for 24 hours
Protocol: (§1) The thus obtained culture solutions were diluted with DOHLU+Glu culture medium so that OD600 became 0.200, and then the diluted ones were further diluted with DOHLU+Glu culture medium at a dilution rate of 1/200 to obtain diluted pre-cultured solutions.
(§2) A 96-well assay plate was prepared by filling each well with 1 μL of a DMSO solution of an examinee substance (Abscisic acid or 6-Benzyl aminopurine). In this regard, it is to be noted that the DMSO solution of a examinee substance was prepared so that the concentration thereof became 200 ppm. Simultaneously, an assay plate was prepared by filling each well with 1 μL of DMSO as a blank section.
(§3) Each of the diluted pre-cultured solutions was added in a volume of 100 μL per each well of both of the assay plates, and was cultured at 30° C. for 24 hours. After incubation, the turbidity of each well was measured using a plate reader. The absorbance (OD600) of each of the culture solutions of the transformed cells containing the examinee substance was shown in Table 3. […] Further, the growth speeds of the transformed cells TM182-CRE1-CYC1IPT4 and TM182-CRE1-ADHIPT5 in the culture medium to which 6-Benzyl aminopurine was added were faster than those in the culture medium to which only DMSO was added.
as §3, with “4.” for “3.”, “TM182-CRE1-ADHIPT4, TM182-AHK2-CYC1IPT4, TM182-AHK2-CYC1IPT5” for “TM182-CRE1-CYC1IPT4”, “TM182-AHK2-ADHIPT5” for “TM182-CRE1-ADHIPT5”

[2] = test system: transformed cells TM182-AHK2-CYC1IPT4; assay: Liquid culture of transformed cell TM182-AHK2-CYC1IPT4 with examinee substance, absorbance; conditions: Table 4, TM182-AHK2-CYC1-IPT4, 1 μL of 200 ppm DMSO solution per 100 μL, DOHLU+Glu, 30° C. for 24 hours
Protocol: as §1, §2
as §3, with “4.” for “3.”, “TM182-CRE1-ADHIPT4, TM182-AHK2-CYC1IPT4, TM182-AHK2-CYC1IPT5” for “TM182-CRE1-CYC1IPT4”, “TM182-AHK2-ADHIPT5” for “TM182-CRE1-ADHIPT5”

[3] = target: T1, cytokinin receptor AHK3 (Arabidopsis thaliana, UniProt Q9C5U1); assay: Agonist-activity to cytokinin receptor, optical density of TM182-AHK3 liquid culture; set-up: expressed in transfected cells; host or cells: yeast strain TM182 carrying plasmid p415CYC-AHK3 (pHM-1 backbone, CYC1 promoter); conditions: TM182-AHK3, examinee substance 100 μM, DOLU+Glu, 30° C. for 24 hours
T1 sequence (Q9C5U1 1-1036): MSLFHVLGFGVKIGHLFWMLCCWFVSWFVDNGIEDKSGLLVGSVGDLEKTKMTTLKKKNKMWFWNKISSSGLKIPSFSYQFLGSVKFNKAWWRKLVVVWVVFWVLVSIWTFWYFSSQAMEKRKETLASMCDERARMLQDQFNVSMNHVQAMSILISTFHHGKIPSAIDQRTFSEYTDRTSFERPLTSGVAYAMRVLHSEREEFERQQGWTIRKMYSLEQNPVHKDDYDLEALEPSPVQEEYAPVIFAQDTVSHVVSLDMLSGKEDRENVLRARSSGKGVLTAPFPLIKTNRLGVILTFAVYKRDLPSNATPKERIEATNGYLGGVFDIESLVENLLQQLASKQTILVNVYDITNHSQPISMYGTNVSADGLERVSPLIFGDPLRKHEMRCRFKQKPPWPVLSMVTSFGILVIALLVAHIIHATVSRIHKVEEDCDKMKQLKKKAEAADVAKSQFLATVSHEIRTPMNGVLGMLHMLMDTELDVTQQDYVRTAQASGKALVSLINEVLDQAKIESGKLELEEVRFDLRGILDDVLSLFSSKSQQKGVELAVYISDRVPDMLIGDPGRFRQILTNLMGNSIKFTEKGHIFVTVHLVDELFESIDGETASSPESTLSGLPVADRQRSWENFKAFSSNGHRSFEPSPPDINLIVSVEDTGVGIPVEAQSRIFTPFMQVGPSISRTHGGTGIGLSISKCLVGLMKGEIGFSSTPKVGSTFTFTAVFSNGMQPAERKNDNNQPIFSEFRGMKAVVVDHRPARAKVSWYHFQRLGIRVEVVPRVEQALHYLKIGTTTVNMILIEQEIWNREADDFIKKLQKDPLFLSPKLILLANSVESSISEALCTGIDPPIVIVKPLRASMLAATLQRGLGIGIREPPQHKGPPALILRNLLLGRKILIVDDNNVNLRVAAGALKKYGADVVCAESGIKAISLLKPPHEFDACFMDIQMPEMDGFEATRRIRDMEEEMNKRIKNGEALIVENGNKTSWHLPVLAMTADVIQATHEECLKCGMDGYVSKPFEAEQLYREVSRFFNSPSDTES
Protocol: The transformed cells TM182-AHK2, TM182-AHK2Δ and TM182-AHK3 produced in the reference example 1 were inoculated in 200 ml of DOLU+Gal culture media and pre-cultured at 30° C. for 36 hours. The pre-cultured solutions were diluted with DOLU+Glu media as to become 0.100 as the optical density (OD600) and further the resultants were diluted with DOLU+Glu media at a dilution rate of 1/200 to obtain diluted pre-cultured solutions.
An assay plate was prepared by filling respective wells of a 96-well plate with 20 μl of solutions which were prepared by diluting DMSO solution (10 mM) of each examinee substance with DOLU+Glu medium at a dilution rate of 1/100, said solutions containing each examinee substance to be […]. […]
The diluted pre-cultured solutions were added in 200 μl each into the respective wells of both assay plates and cultured at 30° C. for 24 hours and then the optical density (OD620) of each well was measured by a plate reader. The agonist-activity of the examinee substances to the cytokinin receptor was detected by comparing the optical density measured in the testing sections to which the examinee substances were added with the optical density measured in the blank sections.

[4] = Table 3, TM182-CYC1-CYC1-IPT5, 1 μL of 200 ppm DMSO solution per 100 μL
[5] = Table 4, TM182-CYC1-CYC1-IPT5, 1 μL of 200 ppm DMSO solution per 100 μL

SMILES | absorbance (OD600) of the culture solution [1, 4] | absorbance (OD600) of the culture solution [1, 5] | absorbance (OD600) of the culture solution [2] | optical density (OD620) of the culture solution [3]
CC1=CC(=O)CC(C)(C)[C@@]1(O)/C=C/C(C)=C\C(=O)O [Compound A, Abscisic acid] | 0.041 | 0.036 | 0.194 | 0.54
c1ccc(CNc2ncnc3nc[nH]c23)cc1 [Compound B, 6-Benzyl aminopurine] | 0.043 | 0.035 | 0.339 | 0.88
